One assay addresses Hα4β2 nAChRs (Homo sapiens, UniProt P17787+P43681). The assay is described as follows: Calcium accumulation assay, HEK ts201 cells stably expressing Hα4β2 nAChRs. The assay is classed as cell-based. The conditions noted are these: for effect / activity on Hα4β2 nAChRs: up to 100 µM.
Another assay addresses Hα3β4 nAChRs (Homo sapiens, UniProt P30926+P32297). Kind of assay: Calcium accumulation assay, HEK ts201 cells stably expressing Hα3β4 nAChRs. The assay is classed as cell-based. The conditions noted are these: for effect / activity on Hα3β4 nAChRs: up to 100 µM.
The mark [1] stands for this setting: 30 µM compound, competitive vs non-competitive test, n=4.
Setting [2] is: approximate, concentration used in Figure 1.

“Also recorded” adds a separate entry of the source.

Chain of Hα4β2 nAChRs (P43681 29-627 limits assumed): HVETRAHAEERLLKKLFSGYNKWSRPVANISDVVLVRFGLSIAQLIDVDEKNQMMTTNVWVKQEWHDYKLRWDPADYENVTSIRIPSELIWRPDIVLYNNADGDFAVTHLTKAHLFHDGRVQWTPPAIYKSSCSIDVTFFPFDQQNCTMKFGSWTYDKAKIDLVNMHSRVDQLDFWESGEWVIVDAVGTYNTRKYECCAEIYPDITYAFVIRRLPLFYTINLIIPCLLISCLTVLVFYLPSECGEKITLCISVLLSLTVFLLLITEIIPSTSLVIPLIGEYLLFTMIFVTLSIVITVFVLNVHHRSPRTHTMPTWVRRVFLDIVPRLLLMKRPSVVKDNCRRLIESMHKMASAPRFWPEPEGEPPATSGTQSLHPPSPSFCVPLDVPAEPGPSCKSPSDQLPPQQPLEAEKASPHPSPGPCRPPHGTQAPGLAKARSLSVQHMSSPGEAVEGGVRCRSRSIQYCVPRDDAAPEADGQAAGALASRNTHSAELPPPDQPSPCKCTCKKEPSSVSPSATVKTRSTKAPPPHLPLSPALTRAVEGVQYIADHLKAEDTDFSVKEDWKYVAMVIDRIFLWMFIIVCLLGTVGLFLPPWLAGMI
Chain of Hα4β2 nAChRs (P17787 26-502): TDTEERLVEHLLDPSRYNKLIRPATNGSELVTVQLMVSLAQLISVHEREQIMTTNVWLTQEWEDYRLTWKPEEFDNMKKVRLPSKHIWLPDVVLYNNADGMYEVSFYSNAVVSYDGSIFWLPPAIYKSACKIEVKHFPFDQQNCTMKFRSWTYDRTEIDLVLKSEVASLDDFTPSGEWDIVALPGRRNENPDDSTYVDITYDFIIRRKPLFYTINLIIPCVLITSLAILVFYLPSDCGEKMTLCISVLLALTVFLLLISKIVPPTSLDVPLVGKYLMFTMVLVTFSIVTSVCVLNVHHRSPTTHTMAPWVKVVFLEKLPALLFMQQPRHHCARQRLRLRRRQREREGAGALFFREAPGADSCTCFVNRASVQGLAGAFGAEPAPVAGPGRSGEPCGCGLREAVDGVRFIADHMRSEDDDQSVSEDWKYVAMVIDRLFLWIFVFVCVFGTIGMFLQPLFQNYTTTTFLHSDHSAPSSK
Chain of Hα3β4 nAChRs (P32297 32-505): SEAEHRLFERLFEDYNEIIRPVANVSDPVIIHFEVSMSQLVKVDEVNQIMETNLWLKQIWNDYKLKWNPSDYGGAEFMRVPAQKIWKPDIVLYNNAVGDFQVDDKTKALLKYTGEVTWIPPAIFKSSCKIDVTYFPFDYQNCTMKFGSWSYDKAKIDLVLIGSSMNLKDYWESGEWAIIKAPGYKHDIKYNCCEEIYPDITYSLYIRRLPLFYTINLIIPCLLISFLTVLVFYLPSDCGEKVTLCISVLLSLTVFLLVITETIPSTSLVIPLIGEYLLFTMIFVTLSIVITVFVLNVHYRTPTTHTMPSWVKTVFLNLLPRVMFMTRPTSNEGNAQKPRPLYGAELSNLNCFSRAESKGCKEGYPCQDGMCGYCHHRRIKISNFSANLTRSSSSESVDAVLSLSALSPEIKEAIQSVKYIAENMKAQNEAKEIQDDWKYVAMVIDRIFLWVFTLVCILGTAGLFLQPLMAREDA
Chain of Hα3β4 nAChRs (P30926 22-498): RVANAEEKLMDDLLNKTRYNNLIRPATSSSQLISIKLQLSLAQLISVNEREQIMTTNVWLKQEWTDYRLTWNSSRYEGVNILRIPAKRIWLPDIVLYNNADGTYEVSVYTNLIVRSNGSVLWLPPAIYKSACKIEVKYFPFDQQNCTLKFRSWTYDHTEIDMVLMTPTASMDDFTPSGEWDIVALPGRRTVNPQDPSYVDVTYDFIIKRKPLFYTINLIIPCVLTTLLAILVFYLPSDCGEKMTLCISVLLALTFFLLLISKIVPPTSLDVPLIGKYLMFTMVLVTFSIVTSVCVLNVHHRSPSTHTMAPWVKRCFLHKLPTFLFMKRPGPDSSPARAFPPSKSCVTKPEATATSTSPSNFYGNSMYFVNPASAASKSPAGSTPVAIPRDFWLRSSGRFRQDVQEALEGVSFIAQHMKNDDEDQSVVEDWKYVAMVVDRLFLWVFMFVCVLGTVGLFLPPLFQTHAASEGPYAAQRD

Consider `O=C(CN1CCN(S(=O)(=O)c2ccc(F)cc2)CC1)Nc1ccccc1F` [Compound 1, N-(2-fluorophenyl)-2-(4-((4-fluorophenyl)sulfonyl)piperazin-1-yl)acetamide], for which, at Hα4β2 nAChRs (setting [1]), the “effect on epibatidine concentration-response, Hα4β2 nAChRs” value is given as “reduced the maximum efficacy”. In addition, the “IC70, Hα4β2 nAChRs” value on Hα4β2 nAChRs (setting [2]) is recorded as roughly 30 µM. Moreover, at Hα3β4 nAChRs (setting [1]), the “effect on epibatidine concentration-response, Hα3β4 nAChRs” value is given as “reduced the maximum efficacy”. Further, on Hα3β4 nAChRs (setting [2]), the “IC70, Hα3β4 nAChRs” value was roughly 30 µM.
In the case of `O=S(=O)(c1ccc(F)cc1)N1CCNCC1` [Compound 3, 1-([4-fluorophenyl]sulfonyl)piperazine], at Hα4β2 nAChRs, the “effect / activity on Hα4β2 nAChRs” value is given as “no effect”. Moreover, the “effect / activity on Hα3β4 nAChRs” value at Hα3β4 nAChRs is given as “no effect”.
Regarding `O=C(CN1CCN(S(=O)(=O)c2ccc(F)cc2)CC1)Nc1ccc2[nH]ncc2c1` [Compound 11, 2-(4-((4-fluorophenyl)sulfonyl)piperazin-1-yl)-N-(1H-indazol-5-yl)acetamide], the “change in potency for Hα4β2 nAChRs” value at Hα4β2 nAChRs (compared to lead compound 1) is reported as “slight increase”. For the same compound, on Hα3β4 nAChRs (compared to lead compound 1), the “fold decrease in potency for Hα3β4 nAChRs” value is listed as 3 fold.
For `O=C(CN1CCN(S(=O)(=O)c2ccc(F)cc2)CC1)Nc1cc[nH]n1` [Compound 12, 2-(4-((4-fluorophenyl)sulfonyl)piperazin-1-yl)-N-(1H-pyrazol-3-yl)acetamide], the “change in potency for Hα4β2 nAChRs” value on Hα4β2 nAChRs (compared to lead compound 1) is “significant decrease”. For the same compound, the “effect / activity on Hα4β2 nAChRs” value at Hα4β2 nAChRs was “abolished activity; also recorded: loss of activity”. At Hα3β4 nAChRs (compared to lead compound 1), the “change in potency for Hα3β4 nAChRs” value is on record as “significant decrease”. For the same compound, the “effect / activity on Hα3β4 nAChRs” value at Hα3β4 nAChRs is listed as “abolished activity; also recorded: loss of activity”.
Take `COc1ccc(NC(=O)CN2CCN(S(=O)(=O)c3ccc(F)cc3)CC2)cc1` [Compound 13, 2-(4-((4-fluorophenyl)sulfonyl)piperazin-1-yl)-N-(4-methoxyphenyl)acetamide]: on Hα4β2 nAChRs (compared to lead compound 1), the “fold decrease in potency for Hα4β2 nAChRs” value amounted to 2 fold. In addition, the “fold decrease in potency for Hα3β4 nAChRs” value at Hα3β4 nAChRs (compared to lead compound 1) is reported as 3 fold.
Consider `O=C(CN1CCN(S(=O)(=O)c2ccc(F)cc2)CC1)Nc1ccc(F)cc1` [Compound 14, N-(4-fluorophenyl)-2-(4-((4-fluorophenyl)sulfonyl)-piperazin-1-yl)acetamide], for which the “change in potency for Hα4β2 nAChRs” value at Hα4β2 nAChRs (compared to lead compound 1) is listed as “no significant change”. Moreover, on Hα3β4 nAChRs (compared to lead compound 1), the “change in potency for Hα3β4 nAChRs” value is “no significant change”.
Consider `O=C(CN1CCN(S(=O)(=O)c2ccc(F)cc2)CC1)Nc1ccccc1` [Compound 15, 2-(4-((4-fluorophenyl)sulfonyl)piperazin-1-yl)-N-phenylacetamide], for which the “change in potency for Hα4β2 nAChRs” value at Hα4β2 nAChRs (compared to lead compound 1) is reported as “no significant change”. Moreover, the “fold decrease in potency for Hα3β4 nAChRs” value at Hα3β4 nAChRs (compared to lead compound 1) turned out to be 2 fold.
On to `O=C(CN1CCN(S(=O)(=O)c2ccccc2F)CC1)Nc1ccccc1F` [Compound 16, N-(2-fluorophenyl)-2-(4-((2-fluorophenyl)sulfonyl)-piperazin-1-yl)acetamide], for which the “change in potency for Hα4β2 nAChRs” value at Hα4β2 nAChRs (compared to lead compound 1) is reported as “no significant change”.
In the case of `O=C(CN1CCN(S(=O)(=O)c2cccnc2)CC1)Nc1ccccc1F` [Compound 17, N-(2-fluorophenyl)-2-(4-(pyridin-3-ylsulfonyl)piperazin-1-yl)acetamide], on Hα4β2 nAChRs (compared to lead compound 1), the “fold decrease in potency for Hα4β2 nAChRs” value is recorded as 2 fold. In addition, the “fold decrease in potency for Hα3β4 nAChRs” value at Hα3β4 nAChRs (compared to lead compound 1) is on record as 5 fold.
As to `O=C(CN1CCN(S(=O)(=O)c2ccccc2)CC1)Nc1ccccc1F` [Compound 18, N-(2-fluorophenyl)-2-(4-(phenylsulfonyl)piperazin-1-yl)acetamide], at Hα4β2 nAChRs (compared to lead compound 1), the “fold increase in potency for Hα4β2 nAChRs” value is recorded as 2 fold. The “fold increase in potency for Hα3β4 nAChRs” value at Hα3β4 nAChRs (compared to lead compound 1) turned out to be 2 fold.
`COc1ccc(S(=O)(=O)N2CCN(CC(=O)Nc3ccccc3F)CC2)cc1` [Compound 19, N-(2-fluorophenyl)-2-(4-((4-methoxyphenyl)sulfonyl)-piperazin-1-yl)acetamide]: the “change in potency for Hα4β2 nAChRs” value on Hα4β2 nAChRs (compared to lead compound 1) was “no significant change”. Besides, on Hα3β4 nAChRs (compared to lead compound 1), the “change in potency for Hα3β4 nAChRs” value was “no significant change”.
Consider `O=C(CN1CCN(S(=O)(=O)c2ccccc2F)CC1)Nc1ccc(F)cc1` [Compound 20, N-(4-fluorophenyl)-2-(4-((2-fluorophenyl)sulfonyl)-piperazin-1-yl)acetamide], for which the “change in potency for Hα4β2 nAChRs” value on Hα4β2 nAChRs (compared to analog 16) is given as “no change”. Besides, at Hα3β4 nAChRs (compared to analog 16), the “fold increase in potency for Hα3β4 nAChRs” value amounted to 6 fold.
Regarding `COc1ccc(NC(=O)CN2CCN(S(=O)(=O)c3ccccc3F)CC2)cc1` [Compound 21, 2-(4-((2-fluorophenyl)sulfonyl)piperazin-1-yl)-N-(4-methoxyphenyl)acetamide], the “fold decrease in potency for Hα4β2 nAChRs” value at Hα4β2 nAChRs (compared to analog 16) is on record as 2 fold. Moreover, the “fold increase in potency for Hα3β4 nAChRs” value on Hα3β4 nAChRs (compared to analog 16) was 4 fold.
Take `COC(=O)c1ccc(NC(=O)CN2CCN(S(=O)(=O)c3ccccc3F)CC2)cc1` [Compound 22, methyl 4-(2-(4-((2-fluorophenyl)sulfonyl)piperazin-1-yl)acetamido)benzoate]: the “change in potency for Hα4β2 nAChRs” value on Hα4β2 nAChRs (compared to analog 16) is “no significant change”. For the same compound, on Hα3β4 nAChRs (compared to analog 16), the “fold increase in potency for Hα3β4 nAChRs” value amounted to 8 fold.
Take `O=C(CN1CCN(S(=O)(=O)c2ccccc2F)CC1)Nc1ccc(C(=O)O)cc1` [Compound 23, 4-(2-(4-((2-fluorophenyl)sulfonyl)piperazin-1-yl)acetamido)benzoic acid]: at Hα4β2 nAChRs, the “effect / activity on Hα4β2 nAChRs” value is listed as “loss of activity”. The “effect / activity on Hα3β4 nAChRs” value on Hα3β4 nAChRs was “loss of activity”.
As for `O=C(CN1CCN(S(=O)(=O)c2ccccc2F)CC1)Nc1cc[nH]n1` [Compound 24, 2-(4-((2-fluorophenyl)sulfonyl)piperazin-1-yl)-N-(1H-pyrazol-3-yl)acetamide], the “effect / activity on Hα4β2 nAChRs” value at Hα4β2 nAChRs was “loss of activity”. Besides, at Hα3β4 nAChRs, the “effect / activity on Hα3β4 nAChRs” value was “loss of activity”.
As to `COc1ccc(NC(=O)CN2CCN(S(=O)(=O)c3cccnc3)CC2)cc1` [Compound 26, N-(4-methoxyphenyl)-2-(4-(pyridin-3-ylsulfonyl)-piperazin-1-yl)acetamide], on Hα4β2 nAChRs (compared to lead compound 1), the “change in potency for Hα4β2 nAChRs” value is “significant decrease”. On Hα3β4 nAChRs (compared to lead compound 1), the “change in potency for Hα3β4 nAChRs” value was “significant decrease”.
With `COc1ccc(S(=O)(=O)N2CCN(CC(=O)Nc3ccc(F)cc3)CC2)cc1` [Compound 28, N-(4-fluorophenyl)-2-(4-((4-methoxyphenyl)sulfonyl)-piperazin-1-yl)acetamide], the “fold decrease in potency for Hα4β2 nAChRs” value on Hα4β2 nAChRs (compared to lead compound 1) is on record as 2 fold. In addition, the “fold decrease in potency for Hα3β4 nAChRs” value on Hα3β4 nAChRs (compared to lead compound 1) is given as 2 fold.

The values above are taken from publication PMC3240716 (Journal of medicinal chemistry, 2011).
